Experimental findings from PubChem BioAssay AID222 (DTP/NCI, 2004) are described below.

In the assay the test system is C57BL/6 mice, intracerebral ependymoblastoma, median survival T/C. Briefly: NCI In Vivo Anticancer Drug Screen. Data for tumor model Ependymoblastoma (intracerebral) in C57BL/6 mice. Conditions: endpoint: median survival time, higher = longer survival. The method, then:
The antitumor activity of compounds was measured in mice bearing transplantable tumors. Survival or tumor size were measured and the results are expressed as the measurement made in the treated group (T) divided by the measurement made in the vehicle treated control group (C). The tumor model used in this assay is Ependymoblastoma (intracerebral) in C57BL/6 mice

The mark [1] stands for this setting: dose: 12.5 mg/kg/injection, schedule: Q01DX005 (ip), vehicle: saline with Tween-80.
The mark [2] stands for this setting: dose: 25.0 mg/kg/injection, schedule: Q01DX005 (ip), vehicle: saline with Tween-80.
[3] abbreviates: dose: 45.0 mg/kg/injection, schedule: Q01DX005 (ip), vehicle: saline with Tween-80.
The mark [4] stands for this setting: dose: 50.0 mg/kg/injection, schedule: Q01DX005 (ip), vehicle: saline with Tween-80.
The mark [5] stands for this setting: dose: 90.0 mg/kg/injection, schedule: Q01DX005 (ip), vehicle: saline with Tween-80.
The mark [6] stands for this setting: dose: 100.0 mg/kg/injection, schedule: Q01DX005 (ip), vehicle: saline with Tween-80.
The mark [7] stands for this setting: dose: 180.0 mg/kg/injection, schedule: Q01DX005 (ip), vehicle: saline with Tween-80.
The mark [8] stands for this setting: dose: 32.0 mg/kg/injection, schedule: Q01DX005 (ip), vehicle: Klucel (hydroxypropylcellulose) (HPC).
[9] abbreviates: dose: 128.0 mg/kg/injection, schedule: Q01DX005 (ip), vehicle: Klucel (hydroxypropylcellulose) (HPC).
Where [10] appears, read: dose: 360.0 mg/kg/injection, schedule: Q01DX005 (ip), vehicle: saline with Tween-80.
The mark [11] stands for this setting: dose: 720.0 mg/kg/injection, schedule: Q01DX005 (ip), vehicle: saline with Tween-80.

“And” between values parts separate entries of the source, which are not always exact repeats. Equal entries are not always repeated. Toxic doses and inconclusive results are not listed. Starred links: 1 amine or outer side, 2 acyl side, 3 side chain; linkers in the order of their positions; H or OH if unused. Positions of bridges follow the written chain, without caps; N, C: chain ends. Non-standard residues stand in square brackets, D forms with d. Residues, ends and D or L forms follow the SMILES beside them. Chains are numbered I, II in the order given. Actinocin(1to9) = Cc1c2oc3c(C)ccc(C(=O)[*:2])c3nc-2c(C(=O)[*:1])c(N)c1=O; NMeV = CN[CH](C(=O)O)C(C)C; Aze = O=C(O)[CH]1CCN1; Sar = CNCC(=O)O

Consider `NC(C/[N+]([O-])=N/O)C(=O)O` (stereo unspecified), for which the T/C is, setting by setting: (dose: 7.0 mg/kg/injection, schedule: Q01DX005 (ip), vehicle: saline) 119 % of control; (dose: 14.0 mg/kg/injection, schedule: Q01DX005 (ip), vehicle: saline) 119 % of control; (dose: 56.0 mg/kg/injection, schedule: Q01DX005 (ip), vehicle: saline) 95 % of control.

Take `CS(C)=O`: the T/C reads like this: (dose: 1.5 grams/kg/injection, schedule: Q01DX005 (ip), vehicle: saline) 103 % of control; (dose: 6.0 grams/kg/injection, schedule: Q01DX005 (ip), vehicle: saline) 103 % of control.

Take `Nc1ccc(S(=O)(=O)c2ccc(N)cc2)cc1`: the T/C under setting [1] is 108 % of control; the T/C under setting [2] was 108 % of control; the T/C under setting [3] is 98 % of control and 102 % of control; the T/C under setting [4] was 87 % of control; the T/C under setting [5] is 96 % of control and 98 % of control; the T/C under setting [6] is 100 % of control. In addition, the T/C runs as follows: under setting [7], 101 % of control and 87 % of control; (dose: 200.0 mg/kg/injection, schedule: Q01DX005 (ip), vehicle: saline with Tween-80) 86 % of control.

For `O=C1N(Cl)C(=O)C(c2ccc(Cl)cc2)(c2ccc(Cl)cc2)N1Cl`, the T/C by setting is: (dose: 1.56 mg/kg/injection, schedule: Q01DX005 (ip), vehicle: Klucel (hydroxypropylcellulose) (HPC)) 105 % of control; (dose: 3.12 mg/kg/injection, schedule: Q01DX005 (ip), vehicle: Klucel (hydroxypropylcellulose) (HPC)) 110 % of control; (dose: 6.25 mg/kg/injection, schedule: Q01DX005 (ip), vehicle: Klucel (hydroxypropylcellulose) (HPC)) 99 % of control; (dose: 12.5 mg/kg/injection, schedule: Q01DX005 (ip), vehicle: Klucel (hydroxypropylcellulose) (HPC)) 112 % of control; (dose: 25.0 mg/kg/injection, schedule: Q01DX005 (ip), vehicle: Klucel (hydroxypropylcellulose) (HPC)) 110 % of control.

Consider `CCN(CC)CCNc1ccc(CO)c2sc3ccccc3c(=O)c12`, for which the T/C reads like this: (dose: 2.0 mg/kg/injection, schedule: Q01DX005 (ip), vehicle: saline) 94 % of control; (dose: 4.0 mg/kg/injection, schedule: Q01DX005 (ip), vehicle: saline) 104 % of control; (dose: 8.0 mg/kg/injection, schedule: Q01DX005 (ip), vehicle: saline) 104 % of control; (dose: 16.0 mg/kg/injection, schedule: Q01DX005 (ip), vehicle: saline) 101 % of control; (dose: 32.0 mg/kg/injection, schedule: Q01DX005 (ip), vehicle: saline) 111 % of control; (dose: 64.0 mg/kg/injection, schedule: Q01DX005 (ip), vehicle: saline) 119 % of control.

Take `CC(C)=CCC1=C(O)c2ccccc2C(=O)C1=O`: the T/C reads like this: under setting [8], 100 % of control; (dose: 64.0 mg/kg/injection, schedule: Q01DX005 (ip), vehicle: Klucel (hydroxypropylcellulose) (HPC)) 94 % of control; under setting [9], 97 % of control.

On to `C1OC1CN1CCN(CC2CO2)CC1` (stereo unspecified), for which the T/C reads like this: (dose: 3.12 mg/kg/injection, schedule: Q01DX005 (ip), vehicle: saline) 101 % of control; (dose: 6.25 mg/kg/injection, schedule: Q01DX005 (ip), vehicle: saline) 97 % of control; (dose: 25.0 mg/kg/injection, schedule: Q01DX005 (ip), vehicle: saline) 98 % of control.

As to `CC(=O)Nc1ccc(/C=N/NC(N)=S)cc1`, the T/C under setting [3] was 98 % of control; the T/C under setting [5] was 93 % of control and 102 % of control; the T/C under setting [7] is 92 % of control and 104 % of control; the T/C under setting [10] was 96 % of control and 98 % of control; the T/C under setting [11] was 105 % of control and 110 % of control.

On to `Cc1c2oc3c(C)ccc(C(=O)NC4C(=O)NC(C(C)C)C(=O)N5CCCC5C(=O)N(C)CC(=O)N(C)C(C(C)C)C(=O)OC4C)c3nc-2c(C(=O)NC2C(=O)NC(C(C)C)C(=O)N3CCC3C(=O)N(C)CC(=O)N(C)C(C(C)C)C(=O)OC2C)c(N)c1=O` (stereo unspecified) (I: TV[Aze][Sar][NMeV] / II: TVP[Sar][NMeV]; ester I:1-I:C, II:1-II:C; linker I:N-II:N via Actinocin(1to9); configuration not given here), for which the T/C (dose: 12.5 micrograms/kg/injection, schedule: Q01DX005 (ip), vehicle: saline) is 110 % of control; the T/C (dose: 25.0 micrograms/kg/injection, schedule: Q01DX005 (ip), vehicle: saline) is 107 % of control; the T/C (dose: 50.0 micrograms/kg/injection, schedule: Q01DX005 (ip), vehicle: saline) is 101 % of control; the T/C (dose: 100.0 micrograms/kg/injection, schedule: Q01DX005 (ip), vehicle: saline) was 111 % of control.

Take `O=c1cnn(C2OC(CO)C(O)C2O)c(=O)[nH]1` (stereo unspecified): the T/C runs as follows: (dose: 250.0 mg/kg/injection, schedule: Q01DX005 (ip), vehicle: saline) 102 % of control; (dose: 500.0 mg/kg/injection, schedule: Q01DX005 (ip), vehicle: saline) 109 % of control and 111 % of control; (dose: 1000.0 mg/kg/injection, schedule: Q01DX005 (ip), vehicle: saline) 105 % of control and 109 % of control; (dose: 2000.0 mg/kg/injection, schedule: Q01DX005 (ip), vehicle: saline) 115 % of control.

Take `Cc1c[nH]c(=O)[nH]c1=O`: the T/C under setting [8] is 99 % of control; the T/C (dose: 64.0 mg/kg/injection, schedule: Q01DX005 (ip), vehicle: saline with Tween-80) is 97 % of control; the T/C under setting [9] is 97 % of control; the T/C (dose: 128.0 mg/kg/injection, schedule: Q01DX005 (ip), vehicle: saline with Tween-80) is 102 % of control; the T/C (dose: 256.0 mg/kg/injection, schedule: Q01DX005 (ip), vehicle: Klucel (hydroxypropylcellulose) (HPC)) was 95 % of control; the T/C (dose: 256.0 mg/kg/injection, schedule: Q01DX005 (ip), vehicle: saline with Tween-80) is 97 % of control. Moreover, the T/C is, setting by setting: (dose: 512.0 mg/kg/injection, schedule: Q01DX005 (ip), vehicle: Klucel (hydroxypropylcellulose) (HPC)) 106 % of control; (dose: 512.0 mg/kg/injection, schedule: Q01DX005 (ip), vehicle: saline with Tween-80) 88 % of control; (dose: 1024.0 mg/kg/injection, schedule: Q01DX005 (ip), vehicle: saline with Tween-80) 107 % of control.

On to `O=C(N[C@H](CO)[C@H](O)c1ccc([N+](=O)[O-])cc1)C(Cl)Cl`, for which the T/C runs as follows: under setting [5], 97 % of control; under setting [7], 95 % of control and 100 % of control; under setting [10], 87 % of control and 101 % of control; under setting [11], 98 % of control.

As for `COc1cc(C[C@H]2c3cc(OC)c(OC)cc3CCN2C)c(Oc2cc3c(cc2OC)-c2c(OC)c(OC)cc4c2[C@H](C3)N(C)CC4)cc1OC`, the T/C under setting [1] was 97 % of control, the T/C under setting [2] was 92 % of control, the T/C under setting [4] was 100 % of control and the T/C under setting [6] was 93 % of control.

As to `N=C(N)SCc1c2ccccc2c(CSC(=N)N)c2ccccc12`, the T/C was 99 % of control (dose: 2.5 mg/kg/injection, schedule: Q01DX005 (ip), vehicle: Klucel (hydroxypropylcellulose) (HPC)); 100 % of control (dose: 5.0 mg/kg/injection, schedule: Q01DX005 (ip), vehicle: Klucel (hydroxypropylcellulose) (HPC)); 90 % of control (dose: 10.0 mg/kg/injection, schedule: Q01DX005 (ip), vehicle: Klucel (hydroxypropylcellulose) (HPC)); 102 % of control (dose: 20.0 mg/kg/injection, schedule: Q01DX005 (ip), vehicle: Klucel (hydroxypropylcellulose) (HPC)).

As for `CN(C)C(=O)N(CCCl)N=O`, the T/C reads like this: (dose: 16.0 mg/kg/injection, schedule: Q01DX001 (ip), vehicle: other) 154 % of control; (dose: 20.0 mg/kg/injection, schedule: Q01DX001 (ip), vehicle: other) 279 % of control.
